Measurements: patent US8158636B2, “Compounds and methods for kinase modulation, and indications therefor” (Plexxikon Inc., priority 2008, dated 2012)

Legend:
Type in all cases: biochemical
[1] = target: T1, TEC (Homo sapiens, UniProt P42680); assay: Kinase activity assay, TEC; conditions: Table 1l; read-out: activity toward kinase TEC, IC50
T1 sequence (P42680 1-631): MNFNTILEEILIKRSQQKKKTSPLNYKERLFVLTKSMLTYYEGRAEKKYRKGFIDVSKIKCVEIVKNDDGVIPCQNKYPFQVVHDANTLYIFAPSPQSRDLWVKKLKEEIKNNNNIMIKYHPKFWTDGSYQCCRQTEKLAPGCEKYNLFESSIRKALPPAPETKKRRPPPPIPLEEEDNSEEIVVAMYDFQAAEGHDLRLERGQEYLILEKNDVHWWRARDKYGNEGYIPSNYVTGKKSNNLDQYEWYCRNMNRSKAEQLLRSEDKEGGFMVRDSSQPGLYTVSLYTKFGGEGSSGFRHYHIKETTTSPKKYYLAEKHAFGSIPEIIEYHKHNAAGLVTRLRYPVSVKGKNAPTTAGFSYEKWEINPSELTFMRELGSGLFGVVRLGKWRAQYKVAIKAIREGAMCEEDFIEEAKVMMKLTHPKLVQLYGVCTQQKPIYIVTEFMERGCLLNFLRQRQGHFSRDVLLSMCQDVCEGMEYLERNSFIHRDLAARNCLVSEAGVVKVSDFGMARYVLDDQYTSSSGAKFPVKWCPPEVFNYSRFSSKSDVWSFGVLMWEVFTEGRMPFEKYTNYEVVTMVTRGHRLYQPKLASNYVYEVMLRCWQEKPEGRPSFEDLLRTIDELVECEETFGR
Source text: (§1) Assays for the activity of kinases, including, but not limited to, Fms, Kit, B-Raf, B-Raf V600E, c-Raf-1, and TrkA are known in the art, for example as described in US Patent Publication Number US20070032519 and U.S. patent application Ser. No. 11/473,347 (see also, PCT publication WO2007002433), the disclosures of which are hereby incorporated by reference with respect to such assays.

[2] = target: Flt-1 (Homo sapiens, UniProt P17948); assay: Kinase activity assay, Flt-1; conditions: Table 1f; read-out: activity toward kinase Flt-1, IC50
Sequence of Flt-1 (P17948 27-1338): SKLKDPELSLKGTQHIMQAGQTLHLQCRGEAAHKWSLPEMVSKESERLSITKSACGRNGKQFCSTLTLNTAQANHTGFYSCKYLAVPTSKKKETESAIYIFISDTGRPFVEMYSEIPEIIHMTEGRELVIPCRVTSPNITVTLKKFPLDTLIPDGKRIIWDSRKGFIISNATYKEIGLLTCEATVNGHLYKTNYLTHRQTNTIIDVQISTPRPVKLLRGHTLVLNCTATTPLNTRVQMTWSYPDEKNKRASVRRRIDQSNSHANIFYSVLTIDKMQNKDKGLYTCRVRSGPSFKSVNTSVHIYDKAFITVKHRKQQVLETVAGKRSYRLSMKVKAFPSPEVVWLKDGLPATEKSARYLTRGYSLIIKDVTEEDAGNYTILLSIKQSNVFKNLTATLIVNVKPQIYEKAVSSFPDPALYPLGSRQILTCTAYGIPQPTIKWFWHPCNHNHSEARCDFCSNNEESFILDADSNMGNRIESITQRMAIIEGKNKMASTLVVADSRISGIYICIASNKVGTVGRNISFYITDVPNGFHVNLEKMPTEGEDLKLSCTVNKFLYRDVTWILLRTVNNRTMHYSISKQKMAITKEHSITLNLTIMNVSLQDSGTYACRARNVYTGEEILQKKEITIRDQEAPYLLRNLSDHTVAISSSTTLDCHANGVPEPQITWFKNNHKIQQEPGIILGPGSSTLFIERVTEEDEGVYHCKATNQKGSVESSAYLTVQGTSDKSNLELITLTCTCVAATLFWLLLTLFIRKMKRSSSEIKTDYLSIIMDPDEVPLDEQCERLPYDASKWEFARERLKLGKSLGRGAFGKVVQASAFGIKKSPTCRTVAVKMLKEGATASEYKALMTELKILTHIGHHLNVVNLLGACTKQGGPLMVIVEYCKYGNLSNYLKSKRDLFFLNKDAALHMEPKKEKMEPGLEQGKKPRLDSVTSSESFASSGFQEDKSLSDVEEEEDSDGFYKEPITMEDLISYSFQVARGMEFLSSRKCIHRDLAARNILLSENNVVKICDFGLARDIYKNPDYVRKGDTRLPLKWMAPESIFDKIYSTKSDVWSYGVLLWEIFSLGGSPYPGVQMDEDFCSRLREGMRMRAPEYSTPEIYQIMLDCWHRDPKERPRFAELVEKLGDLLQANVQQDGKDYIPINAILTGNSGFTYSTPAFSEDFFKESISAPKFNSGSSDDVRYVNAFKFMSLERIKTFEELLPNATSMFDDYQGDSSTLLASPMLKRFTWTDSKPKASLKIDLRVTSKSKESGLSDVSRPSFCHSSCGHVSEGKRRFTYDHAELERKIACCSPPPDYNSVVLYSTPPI
Source text: as §1

[3] = target: T2, Flt-3 (Homo sapiens, UniProt P36888); assay: Kinase activity assay, Flt-3; conditions: Table 1g; read-out: activity toward kinase Flt-3, IC50
T2 sequence (P36888 27-993): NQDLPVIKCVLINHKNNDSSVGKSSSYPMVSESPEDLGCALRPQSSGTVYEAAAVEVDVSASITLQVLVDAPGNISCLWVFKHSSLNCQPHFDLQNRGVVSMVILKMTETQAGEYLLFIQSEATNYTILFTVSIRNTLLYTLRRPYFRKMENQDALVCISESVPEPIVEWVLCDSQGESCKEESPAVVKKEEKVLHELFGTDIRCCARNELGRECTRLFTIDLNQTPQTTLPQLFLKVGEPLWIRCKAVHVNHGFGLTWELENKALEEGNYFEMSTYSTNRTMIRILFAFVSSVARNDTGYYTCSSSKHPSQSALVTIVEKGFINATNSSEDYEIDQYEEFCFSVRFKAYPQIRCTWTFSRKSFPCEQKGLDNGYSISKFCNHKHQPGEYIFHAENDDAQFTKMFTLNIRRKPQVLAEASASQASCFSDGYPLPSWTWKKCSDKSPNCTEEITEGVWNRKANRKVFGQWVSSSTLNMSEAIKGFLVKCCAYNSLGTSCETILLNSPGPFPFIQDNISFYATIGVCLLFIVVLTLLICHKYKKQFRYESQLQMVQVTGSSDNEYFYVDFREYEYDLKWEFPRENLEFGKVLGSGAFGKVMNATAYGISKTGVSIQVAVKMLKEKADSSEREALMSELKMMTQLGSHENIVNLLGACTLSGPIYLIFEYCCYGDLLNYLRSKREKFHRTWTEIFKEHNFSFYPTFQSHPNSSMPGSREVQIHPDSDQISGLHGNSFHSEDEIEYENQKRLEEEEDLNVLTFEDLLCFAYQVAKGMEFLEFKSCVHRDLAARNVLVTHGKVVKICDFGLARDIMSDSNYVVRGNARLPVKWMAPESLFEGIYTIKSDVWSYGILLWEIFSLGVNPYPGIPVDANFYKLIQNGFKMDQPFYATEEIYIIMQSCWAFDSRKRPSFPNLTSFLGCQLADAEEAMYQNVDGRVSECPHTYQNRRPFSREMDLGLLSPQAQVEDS
Source text: as §1

[4] = target: TrkA (Homo sapiens, UniProt P04629); assay: Kinase activity assay, TrkA; conditions: Table 1m; read-out: activity toward kinase TrkA, IC50
Sequence of TrkA (P04629 33-796): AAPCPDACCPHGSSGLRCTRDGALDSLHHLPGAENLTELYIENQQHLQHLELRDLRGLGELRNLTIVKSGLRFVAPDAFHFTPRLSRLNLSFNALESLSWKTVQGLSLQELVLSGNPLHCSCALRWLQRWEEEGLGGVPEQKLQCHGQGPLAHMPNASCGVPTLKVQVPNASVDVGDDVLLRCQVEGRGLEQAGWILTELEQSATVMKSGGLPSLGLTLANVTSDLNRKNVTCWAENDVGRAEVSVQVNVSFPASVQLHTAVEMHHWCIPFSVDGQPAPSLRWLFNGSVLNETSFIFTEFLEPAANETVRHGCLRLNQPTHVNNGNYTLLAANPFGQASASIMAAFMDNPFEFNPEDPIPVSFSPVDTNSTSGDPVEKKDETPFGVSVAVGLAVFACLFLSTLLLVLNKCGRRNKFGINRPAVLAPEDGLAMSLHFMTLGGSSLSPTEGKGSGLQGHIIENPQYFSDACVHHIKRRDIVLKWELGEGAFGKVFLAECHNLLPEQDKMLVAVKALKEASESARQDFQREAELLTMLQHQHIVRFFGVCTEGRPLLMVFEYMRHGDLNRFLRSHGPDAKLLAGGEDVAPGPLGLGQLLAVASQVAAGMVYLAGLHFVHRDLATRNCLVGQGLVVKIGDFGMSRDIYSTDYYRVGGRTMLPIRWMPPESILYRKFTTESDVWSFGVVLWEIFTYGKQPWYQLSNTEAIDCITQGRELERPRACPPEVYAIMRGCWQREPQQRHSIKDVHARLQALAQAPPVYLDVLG
Source text: as §1

[5] = target: Fms (Homo sapiens, UniProt P07333); assay: Kinase activity assay, Fms; conditions: Table 1h; read-out: activity toward kinase Fms, IC50
Sequence of Fms (P07333 20-972): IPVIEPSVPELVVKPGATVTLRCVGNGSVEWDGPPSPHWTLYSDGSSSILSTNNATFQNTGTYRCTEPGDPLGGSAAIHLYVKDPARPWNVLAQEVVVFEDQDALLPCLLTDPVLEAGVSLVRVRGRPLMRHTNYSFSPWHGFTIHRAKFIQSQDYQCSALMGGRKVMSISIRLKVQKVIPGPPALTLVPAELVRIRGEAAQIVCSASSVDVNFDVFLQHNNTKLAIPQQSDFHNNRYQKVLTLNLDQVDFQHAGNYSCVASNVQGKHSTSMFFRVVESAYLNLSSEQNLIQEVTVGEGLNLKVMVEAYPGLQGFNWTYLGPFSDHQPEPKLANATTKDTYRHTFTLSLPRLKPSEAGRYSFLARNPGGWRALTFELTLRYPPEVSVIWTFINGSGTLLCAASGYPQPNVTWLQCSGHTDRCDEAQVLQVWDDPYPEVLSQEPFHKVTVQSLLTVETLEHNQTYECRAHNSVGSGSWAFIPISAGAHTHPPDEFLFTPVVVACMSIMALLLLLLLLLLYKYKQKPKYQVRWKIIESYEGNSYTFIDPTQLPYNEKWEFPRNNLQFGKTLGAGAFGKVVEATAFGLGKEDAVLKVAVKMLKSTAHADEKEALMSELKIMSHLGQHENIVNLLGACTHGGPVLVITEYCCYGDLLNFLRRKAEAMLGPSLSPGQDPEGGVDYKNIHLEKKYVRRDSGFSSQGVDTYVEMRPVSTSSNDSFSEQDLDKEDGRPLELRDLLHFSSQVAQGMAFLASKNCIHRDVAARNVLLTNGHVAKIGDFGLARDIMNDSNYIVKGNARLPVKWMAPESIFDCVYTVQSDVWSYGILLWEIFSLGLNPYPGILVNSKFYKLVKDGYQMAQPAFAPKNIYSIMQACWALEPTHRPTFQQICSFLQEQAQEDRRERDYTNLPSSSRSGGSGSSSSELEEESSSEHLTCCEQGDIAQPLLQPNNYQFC
Source text: as §1

[6] = target: B-Raf V600E (Homo sapiens, UniProt P15056, V600E); assay: Kinase activity assay, B-Raf V600E; conditions: Table 1c; read-out: activity toward kinase B-Raf V600E, IC50
Sequence of B-Raf V600E (P15056 whole entry V600E): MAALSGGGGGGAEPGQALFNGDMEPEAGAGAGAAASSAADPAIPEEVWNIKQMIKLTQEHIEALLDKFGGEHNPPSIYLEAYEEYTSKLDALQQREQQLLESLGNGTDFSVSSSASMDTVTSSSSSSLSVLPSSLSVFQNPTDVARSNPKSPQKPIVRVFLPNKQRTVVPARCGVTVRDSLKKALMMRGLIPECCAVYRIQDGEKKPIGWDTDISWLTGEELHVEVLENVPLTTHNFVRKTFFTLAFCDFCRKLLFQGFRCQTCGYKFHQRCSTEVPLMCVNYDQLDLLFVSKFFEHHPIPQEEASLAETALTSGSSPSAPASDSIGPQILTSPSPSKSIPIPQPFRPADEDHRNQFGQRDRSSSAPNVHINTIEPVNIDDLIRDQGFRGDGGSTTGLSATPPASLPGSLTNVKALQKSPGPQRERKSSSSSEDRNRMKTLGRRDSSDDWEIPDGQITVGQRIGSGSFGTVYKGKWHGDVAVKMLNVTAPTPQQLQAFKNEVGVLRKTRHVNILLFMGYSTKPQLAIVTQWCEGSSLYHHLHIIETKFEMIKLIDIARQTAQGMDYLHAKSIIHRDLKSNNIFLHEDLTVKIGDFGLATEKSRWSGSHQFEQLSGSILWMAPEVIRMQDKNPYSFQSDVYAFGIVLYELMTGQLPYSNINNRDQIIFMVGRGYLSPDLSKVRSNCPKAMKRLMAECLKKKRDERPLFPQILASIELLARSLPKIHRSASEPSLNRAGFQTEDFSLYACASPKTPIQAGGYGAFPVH
Source text: as §1

[7] = target: T3, A-Raf (Homo sapiens, UniProt P10398); assay: Kinase activity assay, A-Raf; conditions: Table 1a; read-out: activity toward kinase A-Raf, IC50
T3 sequence (P10398 1-606): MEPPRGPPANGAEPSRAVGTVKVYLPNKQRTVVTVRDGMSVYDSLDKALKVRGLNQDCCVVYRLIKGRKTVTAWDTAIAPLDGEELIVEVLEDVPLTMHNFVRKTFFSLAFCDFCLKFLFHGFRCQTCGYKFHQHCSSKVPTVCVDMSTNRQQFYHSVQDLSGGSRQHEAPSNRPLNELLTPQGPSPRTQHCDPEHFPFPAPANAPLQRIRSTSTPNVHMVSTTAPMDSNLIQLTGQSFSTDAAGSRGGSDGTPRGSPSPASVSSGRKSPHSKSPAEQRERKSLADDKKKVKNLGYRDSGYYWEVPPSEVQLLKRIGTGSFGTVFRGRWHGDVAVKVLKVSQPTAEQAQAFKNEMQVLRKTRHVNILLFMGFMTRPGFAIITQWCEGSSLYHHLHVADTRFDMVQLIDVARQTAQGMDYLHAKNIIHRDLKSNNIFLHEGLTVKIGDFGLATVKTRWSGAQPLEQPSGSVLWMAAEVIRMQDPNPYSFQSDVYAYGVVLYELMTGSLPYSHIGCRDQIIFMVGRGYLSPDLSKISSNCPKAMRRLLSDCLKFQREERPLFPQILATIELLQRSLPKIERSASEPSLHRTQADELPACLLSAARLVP
Source text: as §1

[8] = target: Kit (Homo sapiens, UniProt P10721); assay: Kinase activity assay, Kit; conditions: Table 1j; read-out: activity toward kinase Kit, IC50
Sequence of Kit (P10721 26-976): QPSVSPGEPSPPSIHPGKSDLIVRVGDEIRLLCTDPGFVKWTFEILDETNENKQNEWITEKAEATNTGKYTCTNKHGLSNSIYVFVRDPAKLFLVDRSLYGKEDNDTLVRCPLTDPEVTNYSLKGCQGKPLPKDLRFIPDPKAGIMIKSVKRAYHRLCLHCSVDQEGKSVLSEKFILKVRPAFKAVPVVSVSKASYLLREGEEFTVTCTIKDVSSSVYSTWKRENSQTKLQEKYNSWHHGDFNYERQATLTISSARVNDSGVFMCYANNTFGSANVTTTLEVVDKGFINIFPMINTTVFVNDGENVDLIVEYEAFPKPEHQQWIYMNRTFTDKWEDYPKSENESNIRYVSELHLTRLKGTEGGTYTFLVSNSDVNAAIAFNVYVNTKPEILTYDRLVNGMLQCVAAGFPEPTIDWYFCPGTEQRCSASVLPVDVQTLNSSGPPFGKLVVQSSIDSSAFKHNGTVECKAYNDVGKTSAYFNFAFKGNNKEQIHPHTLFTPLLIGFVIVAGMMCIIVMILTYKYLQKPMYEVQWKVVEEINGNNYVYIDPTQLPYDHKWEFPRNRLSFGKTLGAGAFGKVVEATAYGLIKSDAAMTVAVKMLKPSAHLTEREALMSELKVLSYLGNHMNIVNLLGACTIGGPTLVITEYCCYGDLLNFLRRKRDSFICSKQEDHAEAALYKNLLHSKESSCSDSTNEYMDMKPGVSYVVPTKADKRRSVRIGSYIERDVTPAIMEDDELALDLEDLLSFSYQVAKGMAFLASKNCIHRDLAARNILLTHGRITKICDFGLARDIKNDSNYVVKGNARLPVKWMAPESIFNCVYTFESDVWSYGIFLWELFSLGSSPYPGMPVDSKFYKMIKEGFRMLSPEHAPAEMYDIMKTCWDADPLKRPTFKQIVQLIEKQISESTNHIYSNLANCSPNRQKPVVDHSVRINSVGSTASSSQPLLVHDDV
Source text: as §1

[9] = target: Kdr (Homo sapiens, UniProt P35968); assay: Kinase activity assay, Kdr; conditions: Table 1i; read-out: activity toward kinase Kdr, IC50
Source text: as §1

[10] = target: Src (Homo sapiens, UniProt P12931); assay: Kinase activity assay, Src; conditions: Table 1k; read-out: activity toward kinase Src, IC50
Source text: as §1

[11] = target: Btk (Homo sapiens, UniProt Q06187); assay: Kinase activity assay, Btk; conditions: Table 1e; read-out: activity toward kinase Btk, IC50
Source text: as §1

[12] = target: B-Raf (Homo sapiens, UniProt P15056); assay: Kinase activity assay, B-Raf; conditions: Table 1b; read-out: activity toward kinase B-Raf, IC50
Sequence of B-Raf (P15056 whole entry): as the sequence (P15056 whole entry V600E) above, with E600V counted along it
Source text: as §1

[13] = target: C-Raf (Homo sapiens, UniProt P04049); assay: Kinase activity assay, C-Raf; conditions: Table 1d; read-out: activity toward kinase C-Raf, IC50
Source text: as §1

Row | IC50 [1] [µM] | IC50 [2] [µM] | IC50 [3] [µM] | IC50 [4] [µM] | IC50 [5] [µM] | IC50 [6] [µM] | IC50 [7] [µM] | IC50 [8] [µM] | IC50 [9] [µM] | IC50 [10] [µM] | IC50 [11] [µM] | IC50 [12] [µM] | IC50 [13] [µM] | SMILES
1 | ≤ 10 | ≤ 10 | ≤ 10 | ≤ 10 | ≤ 10 | ≤ 10 | ≤ 10 | ≤ 10 | ≤ 10 |  |  |  |  | Clc1ccc(CNc2ccc(Cc3c[nH]c4ncncc34)cn2)cc1 [P-0001, (4-Chloro-benzyl)-[5-(7H-pyrrolo[2,3-d]pyrimidin-5-ylmethyl)-pyridin-2-yl]-amine]
2 | ≤ 10 | ≤ 10 | ≤ 10 | ≤ 10 | ≤ 10 | ≤ 10 | ≤ 10 | ≤ 10 |  |  |  |  |  | Clc1ccccc1CNc1ccc(Cc2c[nH]c3ncncc23)cn1 [P-0003, (2-Chloro-benzyl)-[5-(7H-pyrrolo[2,3-d]pyrimidin-5-ylmethyl)-pyridin-2-yl]-amine]
3 |  | ≤ 10 | ≤ 10 | ≤ 10 | ≤ 10 | ≤ 10 | ≤ 10 | ≤ 10 | ≤ 10 | ≤ 10 |  |  |  | Fc1nc(NCc2ccc(Cl)cc2)ccc1Cc1c[nH]c2ncncc12 [P-0006, (4-Chloro-benzyl)-[6-fluoro-5-(7H-pyrrolo[2,3-d]pyrimidin-5-ylmethyl)-pyridin-2-yl]-amine]
4 |  |  | ≤ 10 |  | ≤ 10 | ≤ 10 | ≤ 10 | ≤ 10 | ≤ 10 |  | ≤ 10 |  |  | COc1ccc(CNc2ccc(Cc3c[nH]c4ncncc34)c(F)n2)cn1 [P-0009, [6-Fluoro-5-(7H-pyrrolo[2,3-d]pyrimidin-5-ylmethyl)-pyridin-2-yl]-(6-methoxy-pyridin-3-ylmethyl)-amine]
5 |  |  |  | ≤ 10 | ≤ 10 | ≤ 10 |  | ≤ 10 | ≤ 10 |  | ≤ 10 | ≤ 10 | ≤ 10 | COc1ncnc2[nH]cc(Cc3ccc(NCc4ccc(C(F)(F)F)nc4)nc3F)c12 [P-0101, [6-Fluoro-5-(4-methoxy-7H-pyrrolo[2,3-d]pyrimidin-5-ylmethyl)-pyridin-2-yl]-(6-trifluoromethyl-pyridin-3-ylmethyl)-amine]
